# Results published in ChEMBL document CHEMBL1156506, “Changes to the HIV long terminal repeat and to HIV integrase differentially impact HIV integrase assembly, activity, and the binding of strand transfer inhibitors” (J Biol Chem, 2007).
# Test: Binding affinity to HIV wild type integrase
# Design: species or system Human immunodeficiency virus
smiles,measurement,value
[3H]C([3H])([3H])n1c(N2CCCCS2(=O)=O)nc(C(=O)NCc2ccc(F)cc2)c(O)c1=O,Kd,21 nM
